According to patent US9040532B2, “Alpha adrenergic receptor modulators” (Allergan, Inc., priority 2009, dated 2015):
Where two headings read alike, the source gives them in different places.

Experiments:
Alpha 2B [1] = biological target: Alpha 2B (Homo sapiens, UniProt P18089); assay: FLIPR assay, intracellular Ca2+ mobilization, alpha 2B; format: cell-based
Procedure: (§1) Cells are loaded into a plate reader with a Ca^2+ dye indicator and incubated with various compounds. This assay is adequate for monitoring the intracellular Ca^2+ mobilization from fluorescent readings to evaluate receptor agonists.

Alpha 2A = biological target: T1, Alpha 2A (Homo sapiens, UniProt P08913); assay: FLIPR assay, intracellular Ca2+ mobilization, alpha 2A; format: cell-based; conditions: for EC50: agonist, read-out: Alpha 2A Potency (EC50); for Alpha 2A relative efficacy compared to a standard full agonist: value in parentheses
T1 sequence (P08913 1-465): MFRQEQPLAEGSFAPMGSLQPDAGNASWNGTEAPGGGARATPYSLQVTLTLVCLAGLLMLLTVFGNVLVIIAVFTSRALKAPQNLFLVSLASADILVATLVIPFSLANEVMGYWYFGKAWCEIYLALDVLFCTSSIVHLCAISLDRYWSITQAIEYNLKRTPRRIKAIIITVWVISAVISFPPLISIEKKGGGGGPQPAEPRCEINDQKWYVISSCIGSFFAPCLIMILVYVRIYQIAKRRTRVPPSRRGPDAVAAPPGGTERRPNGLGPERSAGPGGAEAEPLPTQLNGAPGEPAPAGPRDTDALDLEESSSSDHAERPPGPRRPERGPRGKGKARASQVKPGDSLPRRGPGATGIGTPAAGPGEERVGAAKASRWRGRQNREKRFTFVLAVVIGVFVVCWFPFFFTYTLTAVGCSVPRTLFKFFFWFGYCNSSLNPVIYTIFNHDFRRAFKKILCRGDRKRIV
Procedure: The compounds described herein were tested for alpha adrenergic activity using a Fluorometric Imaging plate Reader (FLIPR) assay (Princen et al., 2003, Cytometry Part A. 51, pp. 35-45). Cells are loaded into a plate reader with a Ca^2+ dye indicator and incubated with various compounds. This assay is adequate for monitoring the intracellular Ca^2+ mobilization from fluorescent readings to evaluate receptor agonists. […] The compounds described herein activate alpha adrenergic receptors.

Alpha 2C = biological target: T2, Alpha 2C (Homo sapiens, UniProt P18825); assay: FLIPR assay, intracellular Ca2+ mobilization, alpha 2C; format: cell-based; conditions: for EC50: agonist, read-out: Alpha 2C Potency (EC50); for Alpha 2C relative efficacy compared to a standard full agonist: value in parentheses
T2 sequence (P18825 1-462): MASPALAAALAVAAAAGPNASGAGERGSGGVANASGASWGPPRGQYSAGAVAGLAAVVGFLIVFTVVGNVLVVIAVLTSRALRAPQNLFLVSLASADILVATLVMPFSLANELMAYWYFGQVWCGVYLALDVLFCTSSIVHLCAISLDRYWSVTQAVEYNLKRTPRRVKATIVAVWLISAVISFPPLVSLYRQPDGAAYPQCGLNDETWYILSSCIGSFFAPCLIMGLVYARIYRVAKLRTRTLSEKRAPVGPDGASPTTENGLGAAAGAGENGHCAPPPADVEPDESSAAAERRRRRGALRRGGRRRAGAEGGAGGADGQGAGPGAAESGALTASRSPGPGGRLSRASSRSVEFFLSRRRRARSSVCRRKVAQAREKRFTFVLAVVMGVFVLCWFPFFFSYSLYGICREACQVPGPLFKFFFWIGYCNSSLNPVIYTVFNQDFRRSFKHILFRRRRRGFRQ
Procedure: as §1

[2] = system: Intraoccular Pressure (IOP); assay: In-vivo intraocular pressure compound screening; conditions: normotensive male Dutch-Belted rabbits, single 50 μl topical drop, 0.15% or 1.0%; for IOP lowering: IOP 0.5-8 h vs 0 h baseline
Procedure: The experimental animals used, were Normotensive male Dutch-Belted rabbits over 6 months in age (n=4/compound/dose screened). A single drop (50 μl) of the drug formulation, which yields 0.15% or 1.0% of the active metabolite was administered topically by pipette onto the right eye (treated eye) at approximately 0700 hours. Intraoccular Pressure (IOP) of the rabbits (treated and untreated eyes) was measured 0 hours before and at 0.5, 1, 2, 3, 4, 6 and 8 hours after topical eyedrop administration. IOP at the time of eyedrop administration (0 hours) was used as a baseline value. Prior to the tonometric measurements, 0.05% proparacaine (50 μl) was administered to each eye. Tonometric IOP measurements were obtained with a Mentor Pneumontonmeter. Additionally, all studies were masked. At least 1 week of wash-out time was allowed for each rabbit between dosings. All animals were examined for sedation, ocular irritation, and changes in pupil diameter throughout the course of the experiments. […] In this assay, Compound 10 lowered IOP about 35%.

Alpha 2B [3] = biological target: T3, Alpha 2B (Homo sapiens, UniProt P18089); assay: FLIPR assay, intracellular Ca2+ mobilization, alpha 2B; format: cell-based; conditions: FLIPR; for EC50: agonist, read-out: Alpha 2B Potency (EC50); for Alpha 2B relative efficacy compared to a standard full agonist: value in parentheses
T3 sequence (P18089 1-450): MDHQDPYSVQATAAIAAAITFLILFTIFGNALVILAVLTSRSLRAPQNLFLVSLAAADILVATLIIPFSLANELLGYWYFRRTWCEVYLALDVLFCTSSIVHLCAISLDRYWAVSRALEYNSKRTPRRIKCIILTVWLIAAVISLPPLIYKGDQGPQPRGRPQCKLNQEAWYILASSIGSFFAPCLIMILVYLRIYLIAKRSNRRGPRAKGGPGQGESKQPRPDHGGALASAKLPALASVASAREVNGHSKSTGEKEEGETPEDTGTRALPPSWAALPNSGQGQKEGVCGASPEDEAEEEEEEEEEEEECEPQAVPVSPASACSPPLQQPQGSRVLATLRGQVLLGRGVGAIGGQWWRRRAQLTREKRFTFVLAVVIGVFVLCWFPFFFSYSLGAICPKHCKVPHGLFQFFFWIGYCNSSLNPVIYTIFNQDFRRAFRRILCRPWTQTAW
Procedure: as §1

| SMILES | EC50 (Alpha 2B [1]) [nM] | EC50 (Alpha 2A) [nM] | Alpha 2A relative efficacy compared to a standard full agonist (Alpha 2A) | EC50 (Alpha 2C) [nM] | Alpha 2C relative efficacy compared to a standard full agonist (Alpha 2C) | EC50 (Alpha 2B [3]) [nM] | Alpha 2B relative efficacy compared to a standard full agonist (Alpha 2B [3]) | IOP lowering [2] | IOP lowered ([2]; vs 0 h baseline) |
| --- | --- | --- | --- | --- | --- | --- | --- | --- | --- |
| c1cc2c(cc1NC1=NCCC1)CCCC2 | 293 | – | – | – | – | – | – | – | – |
| Brc1c(NC2=NCCC2)ccc2[nH]cnc12 [Compound 10, 4-Bromo-N-(3,4-dihydro-2H-pyrrol-5-yl)-1H-benzimidazol-5-amine] | – | 3 | (1) | 1.5 | (0.94) | 90 | (0.76) | show potential in lowering IOP | about 35% |
| c1ccc2c(NC3=NCCC3)cccc2c1 [Compound 1, N-1-Naphthyl-3,4-dihydro-2H-pyrrol-5-amine] | – | 61 | (0.81) | 5 | (0.88) | 30 | (0.16) | – | – |
| Cc1ccc2ccccc2c1NC1=NCCC1 [Compound 2, N-(2-Methyl-1-naphthyl)-3,4-dihydro-2H-pyrrol-5-amine] | – | 733 | (0.61) | 368 | (0.85) | 145 | (0.18) | – | – |
| Brc1c(NC2=NCCC2)ccc2nccnc12 [Compound 8, 5-Bromo-N-(3,4-dihydro-2H-pyrrol-5-yl)quinoxalin-6-amine] | – | 1070 | (0.81) | 1050 | (0.82) | 2200 | (0.21) | – | – |
| Clc1c(NC2=NCCC2)ccc2cccnc12 [Compound 9, 8-Chloro-N-(3,4-dihydro-2H-pyrrol-5-yl)quinolin-7-amine] | – | 429 | (1) | 218 | (0.97) | 1050 | (0.38) | show potential in lowering IOP | – |

Further lines, with some results ahead:

| EC50 (Alpha 2B [1]) [nM] | EC50 (Alpha 2A) [nM] | Alpha 2A relative efficacy compared to a standard full agonist (Alpha 2A) | EC50 (Alpha 2C) [nM] | Alpha 2C relative efficacy compared to a standard full agonist (Alpha 2C) | EC50 (Alpha 2B [3]) [nM] | Alpha 2B relative efficacy compared to a standard full agonist (Alpha 2B [3]) | SMILES | IOP lowering [2] | IOP lowered ([2]; vs 0 h baseline) |
| --- | --- | --- | --- | --- | --- | --- | --- | --- | --- |
| – | 121 | (0.89) | 16 | (0.9) | – | – | Cc1c(NC2=NCCC2)ccc2nccnc12 [Compound 27, N-(3,4-Dihydro-2H-pyrrol-5-yl)-5-methylquinoxalin-6-amine] | show potential in lowering IOP | – |
| – | 272 | (0.43) | 58 | (0.94) | 21 | (0.9) | Cc1cccc2c1CC[C@@H]2NC1=NCCC1 [Compound 37, N-[(1S)-4-Methyl-2,3-dihydro-1H-inden-1-yl]-3,4-dihydro-2H-pyrrol-5-amine] | – | – |
| – | 583 | (0.68) | 327 | (0.87) | 579 | (0.77) | Cc1c(NC2=NCCC2)ccc2c1NCCO2 [Compound 36, N-(3,4-Dihydro-2H-pyrrol-5-yl)-5-methyl-3,4-dihydro-2H-1,4-benzoxazin-6-amine] | – | – |
| – | 203 | (1) | 58 | (1) | 510 | (0.86) | Cc1c(NC2=NCCC2)ccc2[nH]cnc12 [Compound 12, N-(3,4-dihydro-2H-pyrrol-5-yl)-4-methyl-1H-benzimidazol-5-amine] | show potential in lowering IOP | – |
| – | 216 | (0.98) | 35 | (1) | 513 | (0.69) | Clc1c(NC2=NCCC2)ccc2[nH]cnc12 [Compound 11, 4-Chloro-N-(3,4-dihydro-2H-pyrrol-5-yl)-1H-benzimidazol-5-amine] | show potential in lowering IOP | – |
| – | 6 | (0.98) | < 1 | (1) | 80 | (0.2) | Cc1c(NC2=NCCC2)ccc2cccnc12 [Compound 29, N-(3,4-Dihydro-2H-pyrrol-5-yl)-8-methylquinolin-7-amine] | show potential in lowering IOP | – |
